The values that follow come from ChEMBL document CHEMBL1157154, “The synthesis of 5-substituted ring E analogs of methyllycaconitine via the Suzuki-Miyaura cross-coupling reaction” (Bioorg Med Chem, 2008).

The target of assay [1] is Neuronal acetylcholine receptor subunit alpha-7 (Bos taurus, UniProt P54131). Description: Displacement of [125I]alpha-bungarotoxin from bovine alpha7 nAChR expressed in HEK293 cells. In kind it is cell-based. On the technique in general: Loss of bound radioactivity is the signal in a displacement assay; it reports binding, not function.
For assay [2], the target named is Neuronal acetylcholine receptor subunit alpha-3 (Bos taurus) (UniProt Q07263). Description: Displacement of [3H]epibatidine from bovine […] nAChR expressed in HEK293 cells at 10 uM. The format is cell-based.
The target of assay [3] is Neuronal acetylcholine receptor subunit alpha-7 (Bos taurus) (UniProt P54131). Description: Displacement of [125I]alpha-bungarotoxin from bovine alpha7 nAChR expressed in HEK293 cells at 10 uM. The format is cell-based.
Assay [4] concerns the target Neuronal acetylcholine receptor subunit alpha-3 (Bos taurus) (UniProt Q07263). Description: Displacement of [3H]epibatidine from bovine […] nAChR expressed in HEK293 cells at 1.0 uM. The format is cell-based.
The target in assay [5] is Neuronal acetylcholine receptor subunit alpha-7 (Bos taurus) (UniProt P54131). Description: Displacement of [125I]alpha-bungarotoxin from bovine alpha7 nAChR expressed in HEK293 cells at 1.0 uM. In kind it is cell-based.
Assay [6] in a line: Inhibition of nicotin-stimulated neurosecretion in bovine adrenal gland. In kind it is functional, tissue-based, Bos taurus, Adrenal tissue.

Structures are written as SMILES. pIC50: −log10 of the molar value.

Neuronal acetylcholine receptor subunit alpha-7 (Bos taurus), sequence (P54131 whole entry): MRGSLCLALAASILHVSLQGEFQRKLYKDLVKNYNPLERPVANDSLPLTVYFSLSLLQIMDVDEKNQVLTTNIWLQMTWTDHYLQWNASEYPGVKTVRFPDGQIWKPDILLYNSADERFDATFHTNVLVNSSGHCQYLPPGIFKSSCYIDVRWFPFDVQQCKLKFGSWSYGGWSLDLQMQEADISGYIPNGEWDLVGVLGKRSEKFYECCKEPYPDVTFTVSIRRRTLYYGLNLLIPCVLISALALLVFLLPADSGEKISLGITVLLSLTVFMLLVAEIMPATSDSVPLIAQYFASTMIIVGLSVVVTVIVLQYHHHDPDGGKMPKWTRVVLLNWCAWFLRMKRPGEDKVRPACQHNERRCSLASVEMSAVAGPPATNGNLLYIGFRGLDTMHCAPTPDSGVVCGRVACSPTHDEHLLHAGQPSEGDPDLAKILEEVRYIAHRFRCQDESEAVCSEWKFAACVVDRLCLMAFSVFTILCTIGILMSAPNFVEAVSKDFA
Neuronal acetylcholine receptor subunit alpha-3 (Bos taurus), sequence (Q07263 whole entry): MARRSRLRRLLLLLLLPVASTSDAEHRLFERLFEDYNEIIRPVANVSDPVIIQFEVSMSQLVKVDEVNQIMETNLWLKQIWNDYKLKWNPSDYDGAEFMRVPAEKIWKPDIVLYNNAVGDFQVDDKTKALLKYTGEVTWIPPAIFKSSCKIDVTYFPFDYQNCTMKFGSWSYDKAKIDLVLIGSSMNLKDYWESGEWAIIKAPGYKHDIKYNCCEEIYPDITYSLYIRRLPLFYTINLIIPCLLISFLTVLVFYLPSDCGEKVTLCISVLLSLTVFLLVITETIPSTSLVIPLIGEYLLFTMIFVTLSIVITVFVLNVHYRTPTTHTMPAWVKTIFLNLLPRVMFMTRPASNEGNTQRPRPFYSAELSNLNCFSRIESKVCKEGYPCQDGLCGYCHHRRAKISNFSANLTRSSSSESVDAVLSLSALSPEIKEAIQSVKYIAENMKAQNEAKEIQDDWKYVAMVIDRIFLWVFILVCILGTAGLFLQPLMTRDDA
Neuronal acetylcholine receptor subunit alpha-7, sequence (P54131 whole entry): as the sequence (P54131 whole entry) above

One may read the pIC50 as −log10 of the IC50, conventionally taken in molar units. Regarding `CC1CC(=O)N(c2ccccc2C(=O)OC[C@@H]2CCCN(CCCc3ccccc3)C2)C1=O` (stereo not given in full), the pIC50 in assay [1] was 3.75.

For the compound `CC1CC(=O)N(c2ccccc2C(=O)OC[C@@H]2C[C@H](CCc3ccccc3)CN(CCCc3ccccc3)C2)C1=O` (stereo not given in full), the Activity in assay [2] came out at 103%; in assay [3], 98.8%.

For `CC1CC(=O)N(c2ccccc2C(=O)OC[C@@H]2C[C@H](C3CCCCC3)CN(CCCc3ccccc3)C2)C1=O` (stereo not given in full), the Activity in assay [3] was 103%.

In the case of `CCN1C[C@]2(COC(=O)c3ccccc3N3C(=O)C[C@H](C)C3=O)CC[C@H](OC)[C@@]34[C@@H]5C[C@H]6[C@H](OC)[C@@H]5[C@](O)(C[C@@H]6OC)[C@](O)([C@@H](OC)[C@H]23)[C@@H]14`, the Activity in assay [4] stood at 50.1%; in assay [5], 7.5%.

The compound `CC1CC(=O)N(c2ccccc2C(=O)OC[C@@H]2C[C@H](CC3CCCCC3)CN(CCCc3ccccc3)C2)C1=O` (stereo not given in full) showed an Activity in assay [3] of 92.6%.

As to `CCCCCC[C@H]1C[C@@H](COC(=O)c2ccccc2N2C(=O)CC(C)C2=O)CN(CCCc2ccccc2)C1` (stereo not given in full), the Activity in assay [2] was 105%; in assay [3], 92.2%. In assay [6], this compound gave a pIC50 of 5.70.

For the compound `CC1CC(=O)N(c2ccccc2C(=O)OC[C@@H]2C[C@H](CCCCCO[Si](C)(C)C(C)(C)C)CN(CCCc3ccccc3)C2)C1=O` (stereo not given in full), the Activity in assay [2] amounted to 118%; in assay [3], 88.8%. In assay [6], this compound gave a pIC50 of 5.70.

Turning to `CC1CC(=O)N(c2ccccc2C(=O)OC[C@@H]2C[C@H](c3ccccc3)CN(CCCc3ccccc3)C2)C1=O` (stereo not given in full), the figures for the Activity in assay [2] and in assay [3] were 86.8% and 94.3%, respectively.
